In patent US11690824B2, “Antibacterial compounds” (THE GENERAL HOSPITAL CORPORATION, priority 2018, dated 2023):
Converted amounts (≈) assume the structure as drawn. Where two headings read alike, the source gives them in different places.

Columns and labels:
S. aureus (MRSA) MW2 = experiment: Minimal inhibitory concentration (MIC) assay, micro-dilution; assay type: cell-based; conditions: for MIC: Staphylococcus aureus
Method in brief: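 Strains were grown at 37° C (S. aureus in TSB, E. faecium in BHI broth). MICs were then determined by standard CLSI broth micro-dilution. Each assay was repeated in biological triplicate.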

E. faecium C68 = experiment: MIC assay; assay type: cell-based, Enterococcus faecium; conditions: Enterococcus faecium; E. faecium C68; read-out: Minimum inhibitory concentration
Source text: (§1) Bacterial strains, growth conditions, and persister isolation. Methicillin-resistant S. aureus strains, MW2 BAA-1707, ATCC 33591, and JE2, methicillin-susceptible S. aureus strains, NCTC 8325, Newman, and ATCC 29213, vancomycin-resistant S. aureus strain, VRS1, Enterococcus faecium E007, vancomycin-resistant E. faecium strains, C68,^7 WB312, and WC196, Klebsiella pneumoniae WGLW2 (BEI Resources, Manassas, Va., USA), Acinetobacter baumannii ATCC 17978, Pseudomonas aeruginosa PA14, and Enterobacter aerogenes ATCC 13048 were used to test antimicrobial activity (Table 1). S. aureus strains were grown in tryptic soy broth (TSB) (BD, Franklin Lakes, N.J., USA), and E. faecium was grown in brain-heart infusion (BHI) broth (BD, Franklin Lakes, N.J., USA) at 37° C. K. pneumoniae, A. baumannii, P. aeruginosa, and E. aerogenes were grown in Luria Bertani (LB) broth (BD, Franklin Lakes, N.J., USA) at 37° C.
(§2) Minimal inhibitory concentration (MIC) assay. The MICS of antibiotics were determined by the standard micro-dilution method recommended by the Clinical and Laboratory Standards Institute. MIC assays were conducted in biological triplicate.

E. faecium WB312 = experiment: MIC assay; assay type: cell-based, Enterococcus faecium; conditions: Enterococcus faecium; E. faecium WB312; read-out: Minimum inhibitory concentration
Source text: as §1, §2

E. faecium WC196 = experiment: MIC assay; assay type: cell-based, Enterococcus faecium; conditions: Enterococcus faecium; E. faecium WC196; read-out: Minimum inhibitory concentration
Source text: as §1, §2

E.faecium E007 = experiment: MIC assay; assay type: cell-based, Enterococcus faecium; conditions: Enterococcus faecium; E.faecium E007; read-out: Minimum inhibitory concentration
Source text: as §1, §2

P. aeruginosa PA14 = experiment: MIC assay; assay type: cell-based, Pseudomonas aeruginosa; conditions: Pseudomonas aeruginosa; P. aeruginosa PA14; read-out: Minimum inhibitory concentration
Source text: as §1, §2

[1] = test system: exponential-phase MRSA MW2; experiment: Killing kinetics assay; assay type: cell-based, S. aureus; conditions: 16 μg/ml (4× MIC), ~10^7 CFU/mL
Experimental: Killing kinetics assay. An MRSA MW2 overnight culture was diluted 1:10,000 in 25 mL TSB (˜10^5 CFU/mL) in a 250 mL flask and incubated at 37° C. with shaking at 200 rpm for 4.5 h until it reached exponential-phase (˜2×10^7 CFU/mL). 1 mL of the exponential phase cell culture was mixed with 1 mL of pre-warmed TSB containing twice the desired concentrations of antibiotics in a 96-well assay block (Corning Costar 3960). The assay block was incubated at 37° C. with shaking at 200 rpm. At every hour, 400 μl aliquots were taken, washed once with phosphate buffered saline (PBS), serially diluted and spot-plated onto tryptic soy agar (TSA, BD) plates. After incubation at 37° C. for overnight, colonies were counted to enumerate the number of cells. These experiments were conducted in biological triplicate.

HKC-8 = experiment: Cytotoxicity (WST-1); assay type: cell-based; conditions: 32 μg/ml
Experimental: Cytotoxicity. […] HepG2 and HKC-8 cells were grown in Dulbecco's modified Eagle F-12 media mixed 1:1 with Ham's F-12 (DMEM/F-12, Life Technologies, Carlsbad, Calif., USA) supplemented with 10% FBS and 4 mM L-glutamine at 37° C. in 5% CO2. For cytotoxicity assays, HepG2 or HKC-8 was cultured in 96-well plates in 100 μL/well of the proper media to reach 70-80% confluence. The cells were then treated with a range of concentrations of nTZDpa or its analogs for 72 h. 10 μL of WST-1 (Roche, Mannheim, Germany) was added per well for the last 4 h of the 72 h period. WST-1 reduction was measured at absorbance 450 nm. The percent […] relative to that of the no-treatment control was calculated. The assay was carried out in biological triplicate.

[2] = Hepatic and renal toxicities (serum ALT, BUN) in the mouse thigh infection model; conditions: 5 days
Experimental: Deep-seated mouse thigh infection model. In vivo efficacy of nTZDpa alone or in combination with gentamicin against MRSA persisters was evaluated by a previously described neutropenic mouse thigh infection model with modifications. Six-week-old female CD-I mice (20-25 g, Charles River Laboratories, Wilmington, Mass., USA) were obtained from Charles River Laboratories (Wilmington, Mass., USA). The CD-I mice were rendered neutropenic by administering 150 mg/kg and 100 mg/kg of cyclophosphamide intraperitoneally (i.p.) at 4 days and 1 day before infection, respectively. On the day of infection, overnight culture of MRSA MVV2 was washed 3-time with sterile saline and diluted to 10^7 CFU/ml in the saline. 50 μl of the diluted culture (5×10^5 CFU per mouse) was injected to the right thigh of each mouse. nTZDpa was dissolved in Kolliphor EL (Sigma-Aldrich, St Louis, Mo., USA)/ethanol 1:1 and then diluted 1:10 in saline to a final concentration of 50 mg/kg. At 24 h post-infection, groups of mice (n=10) were treated with 30 mg/kg gentamicin subcutaneously (s.c.) every 12 h, 25 mg/kg vancomycin i.p. every 24 h, 50 mg/kg nTZPpa i.p. every 24 h, or the combination of 50 mg/kg nTZDpa i.p. every 24 h and 30 mg/kg gentamicin s.c. every 12 h for 5 days. Control mice were injected with 250 μl of 10% Kolliphor EL/ethanol in saline i.p. every 24 h for 5 days. Mice were euthanized at 96 h post-infection. Blood was collected by cardiac puncture, and the infected thighs were aseptically excised, weighed, and stored at 4° C. until homogenization. To evaluate hepatic and renal toxicities, the levels of alanine aminotransferase and blood urea nitrogen were analyzed with commercially available kits, following the manufacturer's protocol (Pointe Scientific, Canton, Mich., USA). Thighs were homogenized in PBS, serially diluted with PBS, and spot-plated on TSA plates. After incubating the TSA plates at 37° C. overnight, the number of colonies were enumerated to calculate CFU/g thigh tissue. This study and all experiments were performed in accordance with guidelines approved by the Rhode Island Hospital Institutional Animal Care and Use Committee (RIH IACUC). Statistical significance among each group was analyzed by one-way ANOVA with post-hoc Tukey test using PASW Statistics 18 (SPSS Inc. Chicago, Ill., USA).

[3] = nTZDpa 50 mg/kg with gentamicin 30 mg/kg

**Q.** Which MIC (S. aureus (MRSA) MW2; S. aureus (MRSA) MW2, read-out: Minimum inhibitory concentration) does the source give for O=C(O)c1c(Sc2ccccc2)c2cc(Cl)ccc2n1Cc1ccc(Cl)cc1 [nTZDpa] here?
**A.** 4 µg/mL (≈ 9.34 µM)

**Q.** And the MIC (S. aureus (MRSA) MW2; Table 3, growing MRSA, read-out: MIC)?
**A.** 4 µg/mL (≈ 9.34 µM)

**Q.** What about the “MIC relative to MIC of vancomycin” value (S. aureus (MRSA) MW2; fold higher) of the same compound?
**A.** 4 fold

**Q.** What about the MIC (E. faecium C68) of the same compound?
**A.** 4 µg/mL (≈ 9.34 µM)

**Q.** What about the MIC (E. faecium WB312) of the same compound?
**A.** 4 µg/mL (≈ 9.34 µM)

**Q.** And the MIC (E. faecium WC196)?
**A.** 4 µg/mL (≈ 9.34 µM)

**Q.** And the MIC (E.faecium E007)?
**A.** 4 µg/mL (≈ 9.34 µM)

**Q.** And the MIC (P. aeruginosa PA14)?
**A.** > 64 µg/mL

**Q.** And the “time to complete eradication of exponential-phase MRSA MW2” value [1]?
**A.** ≤ 2 h

**Q.** And the “cell death of HKC-8” value (HKC-8)?
**A.** ~16%

**Q.** And the BUN [2, 3]?
**A.** not increasing ALT or BUN

**Q.** What about the “serum ALT” value [2, 3] of the same compound?
**A.** not increasing ALT or BUN

**Q.** And the BUN ([2]; nTZDpa alone 50 mg/kg i.p.)?
**A.** did not increase serum levels of ALT or BUN

**Q.** What about the “serum ALT” value ([2]; nTZDpa alone 50 mg/kg i.p.) of the same compound?
**A.** did not increase serum levels of ALT or BUN
